Measured values: ChEMBL document CHEMBL1909046, “DrugMatrix in vitro pharmacology data”

Experiments:
[1] = target: Sodium-dependent noradrenaline transporter (Homo sapiens, UniProt P23975); assay: DRUGMATRIX: Norepinephrine Transporter radioligand binding (ligand: [125I] RTI-55); format: cell membranes, MDCK, Membrane; conditions: mdck; Not Active = under 50% inhibition at 10 µM
[2] = target: Sigma non-opioid intracellular receptor 1 (Homo sapiens, UniProt Q99720); assay: DRUGMATRIX: Sigma1 radioligand binding (ligand: [3H] Haloperidol); format: cell membranes, Jurkat, Membrane; conditions: jurkat; Not Active = under 50% inhibition at 10 µM
Sigma non-opioid intracellular receptor 1, sequence (Q99720 whole entry): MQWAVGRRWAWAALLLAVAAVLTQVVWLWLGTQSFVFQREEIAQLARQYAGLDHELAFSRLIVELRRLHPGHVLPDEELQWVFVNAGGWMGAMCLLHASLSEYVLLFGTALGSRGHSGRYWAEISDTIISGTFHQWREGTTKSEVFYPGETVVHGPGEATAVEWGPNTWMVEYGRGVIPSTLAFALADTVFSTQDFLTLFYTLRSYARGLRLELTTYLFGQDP

[3] = target: Adenosine receptor A2a (Homo sapiens, UniProt P29274); assay: DRUGMATRIX: Adenosine A2A radioligand binding (ligand: […]); format: cell membranes, Membrane; conditions: hek293; Not Active = under 50% inhibition at 10 µM
Adenosine receptor A2a, sequence (P29274 whole entry): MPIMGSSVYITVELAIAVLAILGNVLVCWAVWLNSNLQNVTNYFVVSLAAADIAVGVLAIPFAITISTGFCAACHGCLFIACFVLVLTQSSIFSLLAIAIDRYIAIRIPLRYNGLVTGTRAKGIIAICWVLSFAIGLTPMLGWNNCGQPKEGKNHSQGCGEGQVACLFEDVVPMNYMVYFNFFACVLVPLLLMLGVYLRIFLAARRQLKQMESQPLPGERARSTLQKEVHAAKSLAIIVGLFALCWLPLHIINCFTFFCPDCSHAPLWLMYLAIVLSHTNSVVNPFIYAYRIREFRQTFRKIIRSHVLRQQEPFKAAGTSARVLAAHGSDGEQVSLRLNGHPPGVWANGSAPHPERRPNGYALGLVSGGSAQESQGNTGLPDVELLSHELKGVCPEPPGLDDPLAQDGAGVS

[4] = target: T1, Cysteinyl leukotriene receptor 1 (Homo sapiens, UniProt Q9Y271); format: cell membranes, CHO-K1, Membrane; conditions: cho-k1; further: in other assays of this panel Not Active means under 50% inhibition at 10 µM
T1 sequence (Q9Y271 whole entry): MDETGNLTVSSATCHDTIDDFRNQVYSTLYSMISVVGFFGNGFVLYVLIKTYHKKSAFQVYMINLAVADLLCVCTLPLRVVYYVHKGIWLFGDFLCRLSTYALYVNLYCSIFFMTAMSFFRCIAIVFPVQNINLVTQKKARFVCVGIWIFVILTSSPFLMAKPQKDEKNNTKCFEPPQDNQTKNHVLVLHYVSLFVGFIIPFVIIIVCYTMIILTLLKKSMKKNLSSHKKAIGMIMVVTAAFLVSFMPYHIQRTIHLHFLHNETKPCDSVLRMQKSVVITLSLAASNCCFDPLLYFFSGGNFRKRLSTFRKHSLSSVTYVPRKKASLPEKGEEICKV

[5] = target: T2, Progesterone receptor (Bos taurus, UniProt Q690N0); assay: DRUGMATRIX: Progesterone radioligand binding (ligand: [3H] R-5020); format: tissue-based, Uterus; conditions: Not Active = under 50% inhibition at 10 µM
T2 sequence (Q690N0 whole entry): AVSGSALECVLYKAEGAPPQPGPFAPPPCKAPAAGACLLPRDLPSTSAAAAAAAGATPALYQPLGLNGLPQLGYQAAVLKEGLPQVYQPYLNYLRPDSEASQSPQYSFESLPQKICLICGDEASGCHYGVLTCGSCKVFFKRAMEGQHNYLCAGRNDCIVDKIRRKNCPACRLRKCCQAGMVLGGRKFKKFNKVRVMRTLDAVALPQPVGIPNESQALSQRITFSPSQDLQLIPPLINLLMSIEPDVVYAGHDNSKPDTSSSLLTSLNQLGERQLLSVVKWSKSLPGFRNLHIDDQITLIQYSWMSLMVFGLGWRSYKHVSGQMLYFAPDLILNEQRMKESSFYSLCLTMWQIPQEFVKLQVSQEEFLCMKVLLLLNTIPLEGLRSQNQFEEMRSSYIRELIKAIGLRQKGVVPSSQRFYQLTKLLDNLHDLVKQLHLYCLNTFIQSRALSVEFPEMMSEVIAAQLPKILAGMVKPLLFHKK

[6] = target: T3, Vasoactive intestinal polypeptide receptor 1 (Homo sapiens, UniProt P32241); format: cell membranes, Membrane; conditions: ht-29; further: in other assays of this panel Not Active means under 50% inhibition at 10 µM
T3 sequence (P32241 whole entry): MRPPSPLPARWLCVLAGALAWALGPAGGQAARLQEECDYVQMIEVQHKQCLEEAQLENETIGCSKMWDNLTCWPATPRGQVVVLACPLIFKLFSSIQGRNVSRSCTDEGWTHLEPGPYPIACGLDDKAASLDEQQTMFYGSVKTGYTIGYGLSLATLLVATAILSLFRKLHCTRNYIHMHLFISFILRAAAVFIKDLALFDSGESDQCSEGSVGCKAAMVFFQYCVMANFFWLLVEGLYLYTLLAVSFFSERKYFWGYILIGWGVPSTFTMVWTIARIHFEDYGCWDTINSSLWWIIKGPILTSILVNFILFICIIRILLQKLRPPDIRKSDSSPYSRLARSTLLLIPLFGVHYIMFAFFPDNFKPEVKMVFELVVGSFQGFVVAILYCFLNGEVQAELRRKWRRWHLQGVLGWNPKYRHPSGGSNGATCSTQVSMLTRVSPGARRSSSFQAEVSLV

Sodium-dependent noradrenaline transporter, sequence (P23975 whole entry): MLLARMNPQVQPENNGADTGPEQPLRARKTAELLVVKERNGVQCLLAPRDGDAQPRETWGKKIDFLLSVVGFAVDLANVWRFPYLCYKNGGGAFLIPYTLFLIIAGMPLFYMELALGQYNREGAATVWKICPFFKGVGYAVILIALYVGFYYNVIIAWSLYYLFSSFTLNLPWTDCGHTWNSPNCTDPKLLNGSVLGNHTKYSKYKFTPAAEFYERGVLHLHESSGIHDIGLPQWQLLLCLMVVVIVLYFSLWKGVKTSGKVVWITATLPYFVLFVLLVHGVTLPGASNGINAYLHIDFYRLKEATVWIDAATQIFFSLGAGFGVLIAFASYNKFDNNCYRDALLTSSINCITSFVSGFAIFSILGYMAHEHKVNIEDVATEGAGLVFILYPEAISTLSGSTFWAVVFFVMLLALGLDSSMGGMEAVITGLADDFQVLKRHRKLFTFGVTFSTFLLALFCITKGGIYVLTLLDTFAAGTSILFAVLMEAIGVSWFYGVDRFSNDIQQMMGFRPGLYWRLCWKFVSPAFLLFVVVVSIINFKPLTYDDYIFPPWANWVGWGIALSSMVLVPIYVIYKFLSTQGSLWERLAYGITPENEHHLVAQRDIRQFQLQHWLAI

Compound | IC50 [1] | IC50 [2] | IC50 [3] | IC50 [4] | IC50 [5] | IC50 [6] | Ki [1] | Ki [2] | Ki [3] | Ki [4] | Ki [5] | Ki [6] | IC50 ([5]; read-out: IC50) | Ki ([5]; read-out: Ki)
Nc1nc2nc[nH]c2c(=S)[nH]1 [THIOGUANINE] | Not Active | Not Active | Not Active | Not Active | Not Active | Not Active |  |  |  |  |  |  |  | 
SODIUM NITROPRUSSIDE | Not Active | Not Active | Not Active | Not Active | Not Active | Not Active | Not Active | Not Active | Not Active | Not Active | Not Active | Not Active |  | 
Cn1ccnc1S [METHIMAZOLE] | Not Active | Not Active | Not Active | Not Active | Not Active | Not Active |  |  |  |  |  |  |  | 
COc1c(C)c2c(c(O)c1C/C=C(\C)CCC(=O)O)C(=O)OC2 [MYCOPHENOLIC ACID] | Not Active | Not Active | Not Active | Not Active | Not Active | Not Active |  |  |  |  |  |  |  | 
CCCOc1ccccc1-c1nc2nn[nH]c2c(=O)[nH]1 [ZAPRINAST] | Not Active | Not Active | Not Active | Not Active | Not Active | Not Active |  |  |  |  |  |  |  | 
C=CCC1(C(C)CCC)C(=O)NC(=O)NC1=O (stereo not given) [SECOBARBITAL] | Not Active | Not Active | Not Active | Not Active | Not Active | Not Active |  |  |  |  |  |  |  | 
CC(=O)[C@@]1(O)CC[C@H]2[C@@H]3C[C@H](C)C4=CC(=O)CC[C@]4(C)[C@H]3CC[C@@]21C | Not Active | Not Active | Not Active | Not Active |  | Not Active |  |  |  |  |  |  | 711 nM | 93 nM
N#CC(C#N)=Cc1ccc(O)c(O)c1 [TYRPHOSTIN 23] | Not Active | Not Active | Not Active | Not Active | Not Active | Not Active |  |  |  |  |  |  |  | 
